Experimental data taken from paper PMC4937820, “Identification of selective inhibitors of RET and comparison with current clinical candidates through development and validation of a robust screening cascade” (F1000Research, 2016).

Columns and labels:
[1] = system: MZ-CRC-1 (RET (M918T)) versus HEK293 cells; assay: Cell POP (proof of principle) proliferation assay, MZ-CRC-1 vs HEK293 control; type: cell-based, human; settings: IC50 HEK293 control cells divided by IC50 MZ-CRC-1 cells
RET [2] = settings: MZ-CRC-1 cells; confirmed in-house (data not shown); read-out: IC 50 in MZ-CRC-1 cells (RET); cited from earlier work
RET [3] = molecular target: RET (Homo sapiens, UniProt P07949, M918T); assay: RET cellular POM (proof of mechanism) assay; type: cell-based
RET [4] = assay: Western blot of pRET, total RET and GAPDH in MZ-CRC-1 cells; type: cell-based; settings: 1µM, 24 hours
Experimental: Following compound treatment (1µM, 24 hours), MZ-CRC-1 cell lysates (50 μg) were subjected to polyacrylamide gel electrophoresis (PAGE) and semi-dry transfer to nitrocellulose membrane using the Bio-Rad Trans-Blot Turbo system and Trans-Blot Turbo transfer packs. Membranes were blocked overnight at 4°C in phosphate-buffered saline containing 0.1% Tween (PBST; Sigma) and 5% non-fat dried milk powder (marvel). Primary and secondary antibody incubations were performed at room temperature in PBST/0.5% marvel with 3× PBST washes post incubation. pRET (Santa Cruz #SC-20252-R) and total RET (Santa Cruz #sc-167) antibodies were used at 1:500 dilutions; GAPDH (Cell Signaling Technology #2118L) and secondary goat anti rabbit IgG HRP-linked (Cell Signaling Technology #7074) antibodies were used at 1:1000. Proteins were visualized by chemiluminescent detection of peroxidase activity using SuperSignal reagent (Pierce), and images were captured using the Syngene imager and GeneSys software.

RET-positive patients = settings: preliminary report of phase II trial; cited from earlier work

RET (Homo sapiens, UniProt P07949, M918T), sequence (P07949 29-1114 M918T): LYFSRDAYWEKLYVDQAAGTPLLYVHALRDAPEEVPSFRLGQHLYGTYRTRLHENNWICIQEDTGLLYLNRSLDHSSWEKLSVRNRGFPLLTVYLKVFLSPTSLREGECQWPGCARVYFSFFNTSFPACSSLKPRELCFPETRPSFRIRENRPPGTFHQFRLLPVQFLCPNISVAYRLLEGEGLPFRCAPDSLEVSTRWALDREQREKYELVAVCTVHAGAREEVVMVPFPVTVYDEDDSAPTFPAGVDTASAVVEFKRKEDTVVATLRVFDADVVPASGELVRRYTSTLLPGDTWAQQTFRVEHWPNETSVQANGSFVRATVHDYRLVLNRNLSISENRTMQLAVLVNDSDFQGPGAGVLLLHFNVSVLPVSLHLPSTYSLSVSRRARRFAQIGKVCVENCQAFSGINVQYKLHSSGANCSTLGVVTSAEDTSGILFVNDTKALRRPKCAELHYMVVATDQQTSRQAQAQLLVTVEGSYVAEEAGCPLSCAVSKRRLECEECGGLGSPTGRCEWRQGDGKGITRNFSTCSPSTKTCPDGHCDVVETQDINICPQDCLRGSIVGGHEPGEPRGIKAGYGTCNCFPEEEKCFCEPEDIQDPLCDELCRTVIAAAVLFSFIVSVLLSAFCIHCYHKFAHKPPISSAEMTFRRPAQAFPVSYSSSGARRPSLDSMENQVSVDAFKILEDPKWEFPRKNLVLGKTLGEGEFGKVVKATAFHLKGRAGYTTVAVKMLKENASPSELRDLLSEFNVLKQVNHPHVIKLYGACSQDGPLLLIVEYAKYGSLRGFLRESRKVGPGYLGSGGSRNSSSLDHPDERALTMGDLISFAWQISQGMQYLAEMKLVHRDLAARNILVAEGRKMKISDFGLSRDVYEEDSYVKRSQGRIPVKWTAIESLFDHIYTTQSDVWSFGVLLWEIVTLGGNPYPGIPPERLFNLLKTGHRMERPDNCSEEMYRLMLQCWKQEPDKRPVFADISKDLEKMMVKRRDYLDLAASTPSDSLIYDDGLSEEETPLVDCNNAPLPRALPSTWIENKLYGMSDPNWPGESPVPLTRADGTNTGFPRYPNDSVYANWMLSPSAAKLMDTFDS

Compound	Toxicity Margin [1]	further results
CCc1cc2c(cc1N1CCC(N3CCOCC3)CC1)C(C)(C)c1[nH]c3cc(C#N)ccc3c1C2=O [Alectinib]	^1>35×	IC50 (RET [2]): […]
CCN(CC)CCNC(=O)c1c(C)[nH]c(/C=C2\C(=O)Nc3ccc(F)cc32)c1C [Sunitinib]	28×	–
CNC(=O)c1cc(Oc2ccc(NC(=O)Nc3ccc(Cl)c(C(F)(F)F)c3)cc2)ccn1 [Sorafenib]	13×	–
COc1cc2nccc(Oc3ccc(NC(=O)NC4CC4)c(Cl)c3)c2cc1C(N)=O [Lenvatinib]	141×	–
CC(C)c1cc(-c2n[nH]c(=O)n2-c2ccc3c(ccn3C)c2)c(O)cc1O [Ganetespib]	0.7×	Selectivity vs. KDR (cell) (RET [3]; cellular, KDR IC50 divided by RET IC50): 0.36×; IC50 (RET [3]; geometric mean of at least four independent measurements, read-out: RET Cell IC 50): 0.0039 µM; Effect on levels of active RET (RET [4]): reduce levels of active RET, through protein degradation
COc1cc2nccc(Oc3ccc(NC(=O)C4(C(=O)Nc5ccc(F)cc5)CC4)cc3)c2cc1OC [Cabozantinib]	–	Clinical response (RET-positive patients): partial responses in two of three RET-positive patients
